According to US6465501B2, “Azolidines as β3 adrenergic receptor agonists” (Wyeth, priority 2000, dated 2002):
Like-named read-outs stand apart in the source and are kept apart here.

Tests used:
[1] = molecular target: T1, human β3-AR (Homo sapiens, UniProt P13945); assay: cAMP accumulation (SPA) in CHO cells transfected with human β3 adrenergic receptor; type: cell-based; details: for Emax: read-out: IA(β3)
T1 construct: Full length β3 AR clones (402 amino acids) containing the last 6 amino acids of hβ3; expressed in transfected cells; host or cells: CHO (Chinese hamster ovary) cells
T1 sequence (P13945 whole entry): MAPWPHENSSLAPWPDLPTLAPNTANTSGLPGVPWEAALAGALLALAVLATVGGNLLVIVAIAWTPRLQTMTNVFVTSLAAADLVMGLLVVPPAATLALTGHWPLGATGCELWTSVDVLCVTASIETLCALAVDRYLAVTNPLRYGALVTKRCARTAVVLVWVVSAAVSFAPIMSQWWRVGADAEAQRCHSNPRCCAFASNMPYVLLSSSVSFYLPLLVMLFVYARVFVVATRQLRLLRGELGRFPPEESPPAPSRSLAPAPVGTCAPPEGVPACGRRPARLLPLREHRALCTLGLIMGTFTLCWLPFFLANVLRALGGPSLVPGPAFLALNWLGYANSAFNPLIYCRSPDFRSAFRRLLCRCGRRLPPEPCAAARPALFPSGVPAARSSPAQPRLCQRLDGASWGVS
Method: The ability of compounds of this invention to treat or inhibit disorders related to insulin resistance or hyperglycemia was established with representative compounds of this invention in the following standard pharmacological test procedures, which measured the binding selectivity to the β1, β2, and β3 adrenergic receptors. Binding to the receptors was measured in Chinese Hamster ovary (CHO) cells that were transfected with adrenergic receptors. The following briefly summarizes the procedures used and results obtained.
Cloning of Human β3-AR Genomic DNA: cDNA was constructed by ligating four polymerase chain reaction (PCR) products using the following primers: an ATG-Narl fragment, sense primer 5′-[…]3′ and anti-sense primer 5′[…]3′; a Narl-Accl fragment, 5′[…]3′ as sense and 5′[…]3′ as anti-sense primer; an Accli-Styl fragment, sense primer 5′[…]3′ and anti-sense primer 5′[…]3′ and a Styl-TAG fragment, with sense primer 5′[…]3′ and anti-sense primer 5′[…]3′. The corresponding primer sequences are described in Mantzoros, C. S., etal, Diabetes 45: 909-914 (1996). The four fragments are ligated into a pUC 18 plasmid (Gibco-BRL) and sequenced. Full length β3 AR clones (402 amino acids) containing the last 6 amino acids of hβ3 . . . AR are prepared with the β3-βARpcDNA3 from ATTC.
Binding Procedure: Clones expressing receptor levels of 70 to 110 fmoles/mg protein were used in the test procedures. CHO cells were grown in 24-well tissue culture plates in Dulbecco's Modified Eagle Media with 10% fetal bovine serum, MEM non-essential amino acids, Penicillin-Streptompycin and Geneticin. On the day of test procedure, growth medium was replaced with preincubation media (Dulbecco's Modified Eagle Media and incubated for 30 minutes at 37° C. Preincubation medium was replaced with 0.2 ml treatment medium containing DMEM media containing 250 μM IBMX (isobutyl-1-methylxantine) plus 1 mM ascorbic acid with test compound dissolved in DMSO. Test compounds were tested over a concentration range of 10^−9 M to 10^−5 M for β3 cells and 10^″8 to 10^″4 M for β1 and β2 transfected cells. Isoproterenol (10^−5 M) was used as an internal standard for comparison of activity. Cells were incubated at 37° C. on a rocker for 30 min with the β3 cells and 15 min for β1 and β2 cells. Incubation was stopped with the addition of 0.2 N HCI and neutralized with 2.5 N NaOH. The plates, containing the cells and neutralized media, were stored at −20 degrees celsius until ready to test for cAMP using the SPA test kit (Amersham).
Data Analysis and Results: Data collected from the SPA test procedure were analyzed as percent of the maximal isoproterenol response at 10^−5 M. Activity curves were plotted using the SAS statistical and graphics software. EC50 values were generated for each compound and the maximal response (IA) developed for each compound is compared to the maximal response of isoproternol at 10^−5 M from the following formula: [formula]

[2] = CHO cells expressing human β3-AR, cAMP, 30 min at 37° C., 10^-9 M to 10^-5 M, read-out: EC50(β3)
[3] = maximal response compared to the maximal response of isoproterenol at 10^-5 M, CHO cells expressing human β3-AR

SMILES | melting point [°C] | EC50 [1, 2] [nM] | Emax [1, 3] [%] | EC50 [1] [nM] | Emax ([1]; CHO) [%]
O=C1NC(=O)C(Nc2ccc(CCNC[C@@H](O)c3cccnc3)cc2)S1 (some centres unmarked) (hydrate or solvate) [Example 30, 5-{4-[2-((2 S)-2-Hydroxy-2-pyridin-3-yl-ethylamino)-ethyl]-phenylamino}-thiazolidine-2,4-dione] | 46 to 48 | – | – | – | –
O=C1NC(=O)C(Nc2ccc(CCNC[C@H](O)c3cccnc3)cc2)S1 (some centres unmarked) (hydrate or solvate) [Example 31, 5-{4-[2-((2 R)-2-Hydroxy-2-pyridin-3-yl-ethylamino)-ethyl]-phenylamino}-thiazolidine-2,4-dione] | 65 to 67 | – | – | – | –
CN1C(=O)SC(Nc2ccc(CCNC[C@H](O)c3cccc(Cl)c3)cc2)C1=O (some centres unmarked) [Example 3, 5-[4-(2-{[(2 R)-2-(3-Chlorophenyl)-2-hydroxyethyl]amino}ethyl)anilino]-3-methyl-1,3-thiazolidine-2,4-dione] | 129 to 131 | – | – | – | –
O=C1NC(=O)C(Nc2ccc(CCNC[C@H](O)COc3ccc(OCc4ccccc4)cc3)cc2)S1 (some centres unmarked) [Example 4, 5-{4-[2-({(2 S)-3-[4-(Benzyloxy)phenoxy]-2-hydroxypropyl}amino)ethyl]anilino}-1,3-thiazolidine-2,4-dione] | 152 | 1 | 85 | – | –
O=C1NC(=O)C(Nc2ccc(CCNC[C@H](O)COc3ccc(O)cc3)cc2)S1 (some centres unmarked) [Example 5, 5-[4-(2-{[(2 S)-2-Hydroxy-3-(4-hydroxyphenoxy)propyl]amino}ethyl)anilino]-1,3-thiazolidine-2,4-dione] | 165 | 20 | 99 | – | –
O=C1NC(=O)C(Nc2ccc(CCNC[C@H](O)c3cccc(Cl)c3)cc2)S1 (some centres unmarked) [Example 6, 5-[4-(2-{[(2 R)-2-(3-Chlorophenyl)-2-hydroxy-ethyl]amino}ethyl)anilino]-1,3-thiazolidine-2,4-dione] | 162 | 7 | 83 | – | –
O=C1NC(=O)C(Nc2ccc(CCNC[C@H](O)c3ccccc3)cc2)S1 (some centres unmarked) [Example 7, 5-[4-(2-{[(2 R)-2-Hydroxy-2-phenylethyl]amino}ethyl)anilino]-1,3-thiazolidine-2,4-dione] | – | 83 | 94 | – | –
O=C1NC(=O)C(Nc2ccc(CCNC[C@H](O)COc3ccc(F)cc3)cc2)S1 (some centres unmarked) [Example 8, 5-[4-(2-{[(2 S)-3-(4-Fluorophenoxy)-2-hydroxypropyl]amino}ethyl)anilino]-1,3-thiazolidine-2,4-dione] | – | 14 | 66 | – | –
O=C1NC(=O)C(Nc2ccc(CCNC[C@H](O)COc3ccccc3)cc2)S1 (some centres unmarked) [Example 9, 5-[4-(2-{[(2 S)-2-Hydroxy-3-phenoxypropyl]amino}ethyl)anilino]-1,3-thiazolidine-2,4-dione] | – | 0.9 | 98 | – | –
O=C1NC(=O)C(Nc2ccc(CCNC[C@H](O)COc3cccc(O)c3)cc2)S1 (some centres unmarked) [Example 12, 5-[4-(2-{[(2 S)-2-Hydroxy-3-(3-hydroxyphenoxy)propyl]amino}ethyl)anilino]-1,3-thiazolidine-2,4-dione] | – | 3 | 117 | – | –
O=C1NC(=O)C(Nc2ccc(CCNC[C@H](O)COc3cccc4[nH]c5ccccc5c34)cc2)S1 (some centres unmarked) [Example 13, 5-[4-(2-{[(2 S)-3-(9 H-Carbazol-4-yloxy)-2-hydroxypropyl]amino}ethyl)anilino]-1 ,3-thiazolidine-2,4-dione] | – | 12 | 104 | – | –
CS(=O)(=O)Nc1cc([C@H](O)CNCCc2ccc(NC3SC(=O)NC3=O)cc2)ccc1O (some centres unmarked) [Example 14, N{5-[(1 S)-2-({4-[(2,4-Dioxo-1,3-thiazolidin-5-yl)amino]phenethyl}amino)-1-hydroxyethyl]-2-hydroxyphenyl}methanesulfonamide] | – | 9 | 111 | – | –
CN(c1ccc(CCNC[C@H](O)COc2ccccc2)cc1)C1SC(=O)NC1=O (some centres unmarked) [Example 17, 5-[4-(2-{[(2 S)-2-Hydroxy-3-phenoxypropyl]amino}ethyl)(methyl)anilino]-1,3-thiazolidine-2,4-dione.] | – | 17 | 68 | – | –
CC(Cc1ccc(NC2SC(=O)NC2=O)cc1)NC[C@H](O)c1cccc(Cl)c1 (some centres unmarked) [Example 18, 5-[4-(2-{[(2 R)-2-(3-Chlorophenyl)-2-hydroxyethyl]amino}propyl)anilino]-1,3-thiazolidine-2,4-dione] | – | – | – | 9 | 89
O=C1NC(=O)C(Nc2ccc(CCNC[C@@H](O)COc3cccc4[nH]c(=O)[nH]c34)cc2)S1 (some centres unmarked) [Example 19, 5-{4-[2-({(2 R)-2-Hydroxy-3-[(2-oxo-2,3-di hydro-1 H-benzimidazol-4-yl)oxy]propyl}amino)ethyl]anilino}-1,3-thiazolidine-2,4-dione] | – | 20 | 71 | – | –
O=C1NC(=O)C(Nc2ccc(CCNC[C@H](O)COc3ccc(-c4ccccc4)cc3)cc2)S1 (some centres unmarked) [Example 22, 5-(4-{2-[(2 S)-3-(Biphenyl-4-yloxy)-2-hydroxy-propylamino]-ethyl}-phenylamino)-thiazolidine-2,4-dione] | 70 to 71 | – | – | – | –
O=C1NC(=O)C(N(Cc2ccc(Br)cc2)c2ccc(CCNC[C@H](O)COc3ccccc3)cc2)S1 (some centres unmarked) [Example 29, 5-((4-Bromo-benzyl)-{4-[2-((2 S)-2-hydroxy-3-phenoxy-propylamino)-ethyl]-phenyl}-amino)-thiazolidine-2,4-dione] | – | 3 | 109 | – | –
O=C1NC(=O)C(Nc2ccc(CCNC[C@H](O)c3cccnc3)cc2)S1 (some centres unmarked) [Example 31, 5-{4-[2-((2 R)-2-Hydroxy-2-pyridin-3-yl-ethylamino)-ethyl]-phenylamino}-thiazolidine-2,4-dione] | – | 96 | 88 | – | –
